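Interpolation was linear, between the two tested concentrations surrounding the appropriate level; five concentrations were tested over 48 hours in 96-well plates. Abbreviation: GI50, concentration required for 50% inhibition of growth.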 Calls of active or inactive are those of the source. Cut-off read from the data, not from the text of the source: active = GI50 up to about 1.1 µM and inactive = higher.
Experiments:
Test in all cases: NCI anticancer screen, dose series, 48 h
SN12C = system: SN12C
TK-10 = system: TK-10
HOP-62 = system: HOP-62
K562 = system: K562
NCI-H226 = system: NCI-H226
Hs-578T = system: Hs-578T
OVCAR-8 = system: OVCAR-8
SF-268 = system: SF-268
HCT-15 = system: HCT-15
PC-3 = system: PC-3
MDA-N = system: MDA-N
Malme-3M = system: Malme-3M
EKVX = system: EKVX
UO-31 = system: UO-31
HCT-116 = system: HCT-116
OVCAR-5 = system: OVCAR-5
SNB-19 = system: SNB-19
NCI-H522 = system: NCI-H522
786-0 = system: 786-0

SMILES	GI50 (SN12C)	GI50 (TK-10)	GI50 (HOP-62)	GI50 (K562)	GI50 (NCI-H226)	GI50 (Hs-578T)	GI50 (OVCAR-8)	GI50 (SF-268)	GI50 (HCT-15)	GI50 (PC-3)	GI50 (MDA-N)	GI50 (Malme-3M)	GI50 (EKVX)	GI50 (UO-31)	GI50 (HCT-116)	GI50 (OVCAR-5)	GI50 (SNB-19)	GI50 (NCI-H522)	GI50 (786-0)
O=C1C=CC2(C=C1)O[C@H](Cc1ccccc1)[C@@H](Cc1ccccc1)O2	0.665 µM (active)	0.506 µM (active)	1.15 µM (inactive)	0.388 µM (active)	0.255 µM (active)	0.716 µM (active)	0.193 µM (active)	0.755 µM (active)	0.243 µM	0.873 µM (active)	0.246 µM (active)	1.48 µM (inactive)	0.355 µM (active)	0.258 µM (active)	0.1 µM (active)	0.281 µM (active)	2.11 µM (inactive)	0.174 µM (active)	–
O=c1oc2ccccc2cc1-c1ccc([N+](=O)[O-])cc1	> 100 µM (inactive)	> 100 µM (inactive)	> 100 µM (inactive)	> 100 µM (inactive)	> 100 µM (inactive)	99.5 µM (inactive)	54 µM (inactive)	24.8 µM (inactive)	> 100 µM	> 100 µM (inactive)	> 100 µM (inactive)	> 100 µM (inactive)	> 100 µM (inactive)	> 100 µM (inactive)	36.7 µM (inactive)	> 100 µM (inactive)	14.7 µM (inactive)	56.1 µM (inactive)	9.29 µM (inactive)
Cc1ccc(CC2(OCCN(C)C)CCC(C(C)(C)C)CC2)cc1 (configuration not stated)	4.8 µM (inactive)	4.47 µM (inactive)	3.01 µM (inactive)	1.71 µM (inactive)	5.78 µM (inactive)	12.1 µM (inactive)	4.62 µM (inactive)	11.5 µM (inactive)	3.86 µM	3.04 µM (inactive)	2.53 µM (inactive)	1.63 µM (inactive)	6.14 µM (inactive)	3.49 µM (inactive)	2.38 µM (inactive)	5.52 µM (inactive)	4.39 µM (inactive)	3.53 µM (inactive)	1.99 µM (inactive)
CO/N=C\c1cc(O)c(O)c(/C=N/OC)c1	12.8 µM (inactive)	86.7 µM (inactive)	51.4 µM (inactive)	29.8 µM (inactive)	30.3 µM (inactive)	12.6 µM (inactive)	23.4 µM (inactive)	10.9 µM (inactive)	33.3 µM	33.7 µM (inactive)	64.4 µM (inactive)	52.7 µM (inactive)	47.4 µM (inactive)	11.3 µM (inactive)	23.8 µM (inactive)	> 100 µM (inactive)	59.6 µM (inactive)	14.1 µM (inactive)	–
O=C(O)c1[nH]c(=O)[nH]c(=O)c1CN1CCCCC1	> 100 µM (inactive)	> 100 µM (inactive)	> 100 µM (inactive)	> 100 µM (inactive)	> 100 µM (inactive)	> 100 µM (inactive)	> 100 µM (inactive)	> 100 µM (inactive)	> 100 µM	> 100 µM (inactive)	> 100 µM (inactive)	> 100 µM (inactive)	> 100 µM (inactive)	> 100 µM (inactive)	> 100 µM (inactive)	> 100 µM (inactive)	> 100 µM (inactive)	> 100 µM (inactive)	> 100 µM (inactive)
CCSc1cc(C(=O)OC)c2n(c1=O)CCCC2	> 100 µM (inactive)	> 100 µM (inactive)	> 100 µM (inactive)	–	> 100 µM (inactive)	> 100 µM (inactive)	> 100 µM (inactive)	> 100 µM (inactive)	> 100 µM	> 100 µM (inactive)	> 100 µM (inactive)	> 100 µM (inactive)	> 100 µM (inactive)	> 100 µM (inactive)	> 100 µM (inactive)	> 100 µM (inactive)	> 100 µM (inactive)	> 100 µM (inactive)	> 100 µM (inactive)
CCN(CC)CCNc1ccc2nnn3c4ccc(OC(C)=O)cc4c(=O)c1c23	2.26 µM (inactive)	3.52 µM (inactive)	1.98 µM (inactive)	–	0.615 µM (active)	4.39 µM (inactive)	1.15 µM (inactive)	3.01 µM (inactive)	1.46 µM	3.62 µM (inactive)	4.61 µM (inactive)	1.11 µM (active)	5.56 µM (inactive)	1.63 µM (inactive)	3.46 µM (inactive)	11.7 µM (inactive)	> 20.3 µM (inactive)	0.628 µM (active)	–
N#CC1(C#N)NC(c2ccccc2)C(C#N)(C#N)NC1c1ccccc1 (configuration not stated)	> 100 µM (inactive)	> 100 µM (inactive)	> 100 µM (inactive)	> 100 µM (inactive)	> 100 µM (inactive)	> 100 µM (inactive)	> 100 µM (inactive)	> 100 µM (inactive)	> 100 µM	> 100 µM (inactive)	> 100 µM (inactive)	> 100 µM (inactive)	> 100 µM (inactive)	> 100 µM (inactive)	> 100 µM (inactive)	> 100 µM (inactive)	> 100 µM (inactive)	27.4 µM (inactive)	> 100 µM (inactive)
CCOP(=O)(OCC)C(NC(=O)OCC(Cl)(Cl)Cl)n1nnc(C(=O)OC)c1C(=O)OC (configuration not stated)	> 10 µM (inactive)	> 100 µM (inactive)	> 100 µM (inactive)	> 100 µM (inactive)	> 100 µM (inactive)	> 100 µM (inactive)	> 100 µM (inactive)	> 100 µM (inactive)	> 100 µM	77.8 µM (inactive)	> 100 µM (inactive)	> 100 µM (inactive)	> 100 µM (inactive)	> 100 µM (inactive)	> 100 µM (inactive)	–	> 100 µM (inactive)	> 100 µM (inactive)	> 100 µM (inactive)
CC(=O)c1c(SCCN2CCCCCC2)n(-c2ccccc2)c(=S)n(-c2ccccc2)c1=O	5.92 µM (inactive)	2.07 µM (inactive)	19.5 µM (inactive)	2.61 µM (inactive)	29 µM (inactive)	17.7 µM (inactive)	10.7 µM (inactive)	11 µM (inactive)	5.61 µM	5.26 µM (inactive)	7.29 µM (inactive)	1.51 µM (inactive)	19.2 µM (inactive)	–	6.81 µM (inactive)	24.4 µM (inactive)	51.1 µM (inactive)	1.43 µM (inactive)	1.73 µM (inactive)
N#C/C(=C\c1ccc(F)cc1)c1nc(-c2cc3ccccc3oc2=O)cs1	74 µM (inactive)	16.4 µM (inactive)	8.28 µM (inactive)	> 100 µM (inactive)	28.7 µM (inactive)	15.1 µM (inactive)	21.3 µM (inactive)	16.5 µM (inactive)	97.5 µM	31.7 µM (inactive)	76.2 µM (inactive)	15.7 µM (inactive)	30.8 µM (inactive)	26.9 µM (inactive)	35.2 µM (inactive)	> 100 µM (inactive)	11.8 µM (inactive)	17.9 µM (inactive)	14.8 µM (inactive)
CCOC(=O)C(=[N+]=[N-])C(=O)CN1C(=O)C2CC(C)=C(C)CC2C1O (configuration not stated)	–	> 100 µM (inactive)	> 100 µM (inactive)	> 100 µM (inactive)	68.2 µM (inactive)	> 100 µM (inactive)	> 100 µM (inactive)	> 100 µM (inactive)	–	> 100 µM (inactive)	> 100 µM (inactive)	> 100 µM (inactive)	> 100 µM (inactive)	> 100 µM (inactive)	> 100 µM (inactive)	> 100 µM (inactive)	> 100 µM (inactive)	> 100 µM (inactive)	> 100 µM (inactive)
O=C1C=C(C2=CC(=O)C(=O)c3ccccc32)c2ccccc2C1=O	27 µM (inactive)	7.46 µM (inactive)	24.2 µM (inactive)	3.3 µM (inactive)	38.5 µM (inactive)	27.7 µM (inactive)	20.2 µM (inactive)	13.5 µM (inactive)	11.8 µM	15.2 µM (inactive)	2.02 µM (inactive)	3.44 µM (inactive)	34.8 µM (inactive)	6.14 µM (inactive)	6.65 µM (inactive)	18.8 µM (inactive)	29.7 µM (inactive)	2.76 µM (inactive)	13 µM (inactive)
FC(F)(F)C1(C(F)(F)F)OC(Cl)(Cl)C(Cl)(Cl)O1	–	> 10 µM (inactive)	> 10 µM (inactive)	–	> 10 µM (inactive)	> 10 µM (inactive)	> 10 µM (inactive)	> 10 µM (inactive)	> 10 µM	> 10 µM (inactive)	> 10 µM (inactive)	> 10 µM (inactive)	> 10 µM (inactive)	–	> 10 µM (inactive)	> 10 µM (inactive)	> 10 µM (inactive)	> 10 µM (inactive)	> 10 µM (inactive)
C=C1CCC([N+](=O)[O-])[C@](C)(N=O)CC[C@@H]2C1CC2(C)C (some centres not stated)	32.4 µM (inactive)	28.6 µM (inactive)	38.3 µM (inactive)	17.3 µM (inactive)	16 µM (inactive)	17.6 µM (inactive)	22.3 µM (inactive)	31.3 µM (inactive)	22.8 µM	26.4 µM (inactive)	11.6 µM (inactive)	22 µM (inactive)	19 µM (inactive)	16.3 µM (inactive)	14.8 µM (inactive)	16.1 µM (inactive)	27.3 µM (inactive)	19.4 µM (inactive)	20.6 µM (inactive)
O=C(c1cccs1)N1CCN(C(=O)c2cccs2)C1=S	2.95 µM (inactive)	5.4 µM (inactive)	5.04 µM (inactive)	3.05 µM (inactive)	15.8 µM (inactive)	10.7 µM (inactive)	5.32 µM (inactive)	5.28 µM (inactive)	3.99 µM	4.5 µM (inactive)	3.69 µM (inactive)	9.38 µM (inactive)	13.9 µM (inactive)	2.33 µM (inactive)	8.77 µM (inactive)	16 µM (inactive)	12.4 µM (inactive)	3.98 µM (inactive)	2.75 µM (inactive)

From ChEMBL document CHEMBL1201862, “PubChem BioAssay data set” (2004)
